The text below walks through data of US10087172B2, “Compounds and their methods of use” (AGIOS PHARMACEUTICALS, INC, priority 2012, dated 2018).

pIC50: −log10 of the molar value. A value given as a limit tells only on which side of the number the result lay.

The target of this test is T1, glutaminase (GAC) (Homo sapiens, UniProt O94925).
T1 sequence (O94925 55-598 isoform O94925-3 limits assumed): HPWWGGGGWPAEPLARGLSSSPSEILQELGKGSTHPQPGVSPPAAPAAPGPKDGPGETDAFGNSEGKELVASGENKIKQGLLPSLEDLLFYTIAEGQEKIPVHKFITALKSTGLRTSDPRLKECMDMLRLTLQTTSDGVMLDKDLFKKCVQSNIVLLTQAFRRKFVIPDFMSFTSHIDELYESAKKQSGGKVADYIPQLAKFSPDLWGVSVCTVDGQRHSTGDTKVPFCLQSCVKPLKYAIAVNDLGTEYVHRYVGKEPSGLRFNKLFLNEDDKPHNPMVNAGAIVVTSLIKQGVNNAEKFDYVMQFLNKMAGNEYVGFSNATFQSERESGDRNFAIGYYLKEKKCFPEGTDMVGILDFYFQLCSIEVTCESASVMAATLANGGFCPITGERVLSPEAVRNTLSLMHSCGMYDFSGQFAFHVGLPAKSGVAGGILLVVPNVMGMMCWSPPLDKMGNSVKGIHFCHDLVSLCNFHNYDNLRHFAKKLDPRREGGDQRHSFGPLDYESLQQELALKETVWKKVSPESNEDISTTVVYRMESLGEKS
Nature of the test: Glutaminase (GAC) coupled endpoint enzymatic assay (glutamate dehydrogenase/diaphorase/resazurin, Ex544/Em590). Particulars: inhibition of glutaminase, tested in an assay of Example A or Example B; class symbols A-E. The test is classed as biochemical. An excerpt: In certain embodiments, exemplary compounds of Formula I include the compounds described in Table 1 and in the Examples. A compound described herein may be tested for its ability to inhibit glutaminase, e.g., by an assay as described in the Examples. For simplicity, the inhibition activity of these compounds is represented as an IC50 tested in an assay of Example A or Example B in Table 1. […] “N/A” refers to compounds wherein the IC50 is unavailable.
In this example, the enzymatic activity of glutaminase is measured through a coupled endpoint assay. Glutamine and phosphate are supplied to GAC at a concentration equal to Km and AC50, respectively, and GAC concentration is adjusted to give a linear reaction for 60 minutes. The glutamate produced is converted to 2-OG by a kinetic excess of glutamate dehydrogenase. This second step is configured for 2× Km for NAD, since excess NAD is inhibitory. However, a kinetic excess of the third coupling enzyme, diaphorase, recycles NAD from NADH to keep the NAD concentration constant during the timecourse of the assay. Diaphorase, also supplied in kinetic excess, oxidizes NADH produced by GDH back to NAD with the concomitant reduction of rezasurin to the highly fluorescent resorufin. Resorufin in measured after the assay is stopped with SDS by Ex544/Em590. A reduction in the signal indicates inhibition of some component of the coupled enzyme system. Prospective hits are counterscreened against GDH/diaphorase alone to remove hits to the coupling enzyme system in a second assay.
2. Buffers 2× Buffer (300 mM NaCl, 100 mM HEPES pH 8.5, 0.1% BSA, 0.5 mM EDTA, 100 mM sodium phosphate pH 8.5) 5× Substrate Mix (1× Buffer final concentration, with 13 mM glutamine, 100 μM resazurin, 50 μg/ml diaphorase) 1.2× Enzyme Mix (1× Buffer final concentration, with 0.875 μg/ml GAC, 1.56 mM NAD, 6.25 units/ml GDH) Stop Mix (6% SDS in ddH2O) Reaction Procedure 1. Add 1 μl compound in 100% DMSO 2. Add 40 μl of Enzyme Mix and incubate for 60 minute at room temperature 3. Add 10 μl of Substrate Mix to start reaction 4. Stop reaction with 25 μl of 6% SDS and read Ex544 Em 590
For orientation: The colour change of resazurin is a common sign of viable cells or microbes.
For `O=C(Cc1cnccn1)Nc1nnc([C@H]2CCC[C@H](c3nnc(NC(=O)Cc4cnccn4)s3)C2)s1` (relative stereo) [Compound 76], the negative-log IC50 (pIC50) is above 7.00.

On to `N#Cc1cccnc1CC(=O)Nc1nnc([C@H]2CCC[C@H](c3nnc(NC(=O)Cc4ncccc4C#N)s3)C2)s1` (relative stereo) [Compound 113, N,N′-(5,5′-(trans-cyclohexane-1,3-diyl)bis(1,3,4-thiadiazole-5,2-diyl))bis(2-(3-cyanopyridin-2-yl)acetamide)], for which the pIC50 is above 7.00. Compound `CN(C)c1cccnc1CC(=O)Nc1nnc([C@H]2CCC[C@H](c3nnc(NC(=O)Cc4ncccc4N(C)C)s3)C2)s1` (relative stereo) [Compound 115, N,N′-(5,5′-(trans-cyclohexane-1,3-diyl)bis(1,3,4-thiadiazole-5,2-diyl))bis(2-(3-(dimethylamino)pyridin-2-yl)acetamide)] gave a pIC50 of 6.00 to 6.30. With `O=C(Cc1ccccn1)Nc1nnc([C@H]2CCC[C@H](c3nnc(NC(=O)Cc4ccccn4)s3)C2)s1` (single isomer, unassigned) [Compound 14] the figure was above 7.00; with `COc1ccccc1CC(=O)Nc1nnc([C@H]2CCC[C@H](c3nnc(NC(=O)Cc4ccccc4OC)s3)C2)s1` (single isomer, unassigned) [Compound 70], above 7.00; with `COc1cccc(CC(=O)Nc2nnc([C@H]3CCC[C@H](c4nnc(NC(=O)Cc5cccc(OC)c5)s4)C3)s2)c1` (single isomer, unassigned) [Compound 71], above 7.00. For `N#Cc1cccc(CC(=O)Nc2nnc([C@H]3CCC[C@H](c4nnc(NC(=O)Cc5cccc(C#N)c5)s4)C3)s2)c1` (single isomer, unassigned) [Compound 73] the value was above 7.00. With `COc1cccc(CC(=O)Nc2nnc([C@H]3CCC[C@H](c4nnc(NC(=O)Cc5cccc(OC)n5)s4)C3)s2)n1` (single isomer, unassigned) [Compound 84] the figure was above 7.00; with `CC(C)C(=O)Nc1nnc([C@H]2CCC[C@H](c3nnc(NC(=O)C(C)C)s3)C2)s1` (single isomer, unassigned) [Compound 98], 6.30 to 7.00. The compound `CC(=O)Nc1nnc([C@H]2CCC[C@H](c3nnc(NC(C)=O)s3)C2)s1` (single isomer, unassigned) [Compound 99] gave a pIC50 of 6.30 to 7.00. The compound `N#Cc1ccc(CC(=O)Nc2nnc([C@H]3CCC[C@H](c4nnc(NC(=O)Cc5ccc(C#N)cn5)s4)C3)s2)nc1` (single isomer, unassigned) [Compound 101] gave a negative-log IC50 (pIC50) above 7.00. For `CN(C)c1cccc(CC(=O)Nc2nnc([C@H]3CCC[C@H](c4nnc(NC(=O)Cc5cccc(N(C)C)n5)s4)C3)s2)n1` (single isomer, unassigned) [Compound 105] the value was above 7.00; for `CC(=O)Nc1ccc(CC(=O)Nc2nnc([C@H]3CCC[C@H](c4nnc(NC(=O)Cc5ccc(NC(C)=O)cc5)s4)C3)s2)cc1` (single isomer, unassigned) [Compound 106], above 7.00. Compound `COc1ccccc1CC(=O)Nc1nnc([C@@H]2CC[C@@H](c3nnc(NC(=O)Cc4ccccc4OC)s3)C2)s1` (stereo in doubt) [Compound 291, N,N′-(5,5′-((1S,3S)-cyclopentane-1,3-diyl)bis(1,3,4-thiadiazole-5,2-diyl))bis(2-(2-methoxyphenyl)acetamide)] showed a pIC50 above 7.00.

Turning to `O=C(Cc1ccc2c(c1)OCO2)Nc1nnc([C@H]2CCC[C@H](c3nnc(NC(=O)Cc4ccc5c(c4)OCO5)s3)C2)s1` [Cmpd 86], the pIC50 was above 7.00. With `O=C(Cc1ccccn1)Nc1nnc(CC2CCC(Cc3nnc(NC(=O)Cc4ccccn4)s3)CC2)s1` [Compound 2, N,N′-(5,5′-((1R,4R)-cyclohexane-1,4-diylbis(methylene)bis(1,3,4-thiadiazole-5,2-diyl))bis(2-(pyridin-2-yl)acetamide)] the figure was 6.00 to 6.30. For `O=C(Cc1ccccn1)Nc1nnc([C@@H]2CCC[C@@H](c3nnc(NC(=O)Cc4ccccn4)s3)C2)s1` [Compound 17, N,N′-(5,5′-((1R,3R)-cyclohexane-1,3-diyl)bis(1,3,4-thiadiazole-5,2-diyl))bis(2-(pyridin-2-yl)acetamide)] the value was 5.70 to 6.00; for `O=C(Cc1ncccn1)Nc1nnc([C@H]2CCC[C@H](c3nnc(NC(=O)Cc4ncccn4)s3)C2)s1` [Compound 27, N,N′-(5,5′-((1S,3S)-cyclohexane-1,3-diyl)bis(1,3,4-thiadiazole-5,2-diyl))bis(2-(pyrimidin-2-yl)acetamide)], above 7.00. In turn, `O=C(Cc1cccnc1)Nc1nnc([C@H]2CCC[C@H](c3nnc(NC(=O)Cc4cccnc4)s3)C2)s1` [Compound 28, N,N′-(5,5′-((1S,3S)-cyclohexane-1,3-diyl)bis(1,3,4-thiadiazole-5,2-diyl))bis(2-(pyridin-3-yl)acetamide)] had a negative logarithm of the IC50 (pIC50) above 7.00.

Consider `O=C(Cc1ccncc1)Nc1nnc([C@H]2CCC[C@H](c3nnc(NC(=O)Cc4ccncc4)s3)C2)s1` [Compound 29, N,N′-(5,5′-((1S,3S)-cyclohexane-1,3-diyl)bis(1,3,4-thiadiazole-5,2-diyl))bis(2-(pyridin-4-yl)acetamide)], for which the pIC50 was above 7.00.

`Cc1cc(CC(=O)Nc2nnc([C@H]3CCC[C@H](c4nnc(NC(=O)Cc5cc(C)no5)s4)C3)s2)on1` [Compound 30, N,N′-(5,5′-((1S,3S)-cyclohexane-1,3-diyl)bis(1,3,4-thiadiazole-5,2-diyl))bis(2-(3-methylisoxazol-5-yl)acetamide)] showed a pIC50 above 7.00.

`CN(C)c1ccc(CC(=O)Nc2nnc([C@H]3CCC[C@H](c4nnc(NC(=O)Cc5ccc(N(C)C)cc5)s4)C3)s2)cc1` [Compound 31, N,N′-(5,5′-((1S,3S)-cyclohexane-1,3-diyl)bis(1,3,4-thiadiazole-5,2-diyl))bis(2-(4-(dimethylamino)phenyl)acetamide)]: the pIC50 is above 7.00. For `O=C(Cc1cc2ccccc2[nH]1)Nc1nnc([C@H]2CCC[C@H](c3nnc(NC(=O)Cc4cc5ccccc5[nH]4)s3)C2)s1` [Compound 34] the value was 6.30 to 7.00; for `CN(C)c1cccc(CC(=O)Nc2nnc([C@H]3CCC[C@H](c4nnc(NC(=O)Cc5cccc(N(C)C)c5)s4)C3)s2)c1` [Compound 35, N,N′-(5,5′-((1S,3S)-cyclohexane-1,3-diyl)bis(1,3,4-thiadiazole-5,2-diyl))bis(2-(3-(dimethylamino)phenyl)acetamide)], above 7.00. `CCCC(=O)Nc1nnc([C@H]2CCC[C@H](c3nnc(NC(=O)CCC)s3)C2)s1` [Compound 37, N,N′-(5,5′-((1S,3S)-cyclohexane-1,3-diyl)bis(1,3,4-thiadiazole-5,2-diyl))dibutyramide] had a negative-log IC50 (pIC50) of 6.30 to 7.00. For `O=C(Nc1nnc([C@H]2CCC[C@H](c3nnc(NC(=O)c4ccccc4)s3)C2)s1)c1ccccc1` [Compound 39, N,N′-(5,5′-((1S,3S)-cyclohexane-1,3-diyl)bis(1,3,4-thiadiazole-5,2-diyl))dibenzamide] the value was 5.70 to 6.00; for `CCC(=O)Nc1nnc([C@H]2CCC[C@H](c3nnc(NC(=O)CC)s3)C2)s1` [Compound 40, N,N′-(5,5′-((1S,3S)-cyclohexane-1,3-diyl)bis(1,3,4-thiadiazole-5,2-diyl))dipropionamide], 6.30 to 7.00; for `CC(=O)Nc1nnc([C@H]2CCC[C@H](c3nnc(NC(C)=O)s3)C2)s1` [Compound 41], 6.30 to 7.00.

In general, pIC50 refers to the IC50 on a negative log10 scale, so that one unit is a factor of ten. Lower therefore signals a high IC50.
